Data from patent US20240189255A1, “METHODS OF TREATMENT OF OSTEOARTHRITIS WITH TRANSDERMAL CANNABIDIOL GEL” (ZYNERBA PHARMACEUTICALS, INC., priority 2017, published 2024).

Key:
[1] = test system: patients with confirmed osteoarthritis of the knee; experiment: Double-blind, multi-center, placebo-controlled 12-week trial: worst knee pain score, WOMAC physical function, composite responders; format: in vivo, human; set-up: mean reduction from baseline in average worst knee pain scores / Worst Knee Pain Score: scale not given here
Experimental: (§1) Three hundred and twenty (320) patients aged 41 to 78 years of age with confirmed osteoarthritis of the knee were randomized in the double-blind, multi-center trial. Patients who completed the one-week washout and the seven-to-10-day baseline phase were randomized 1:1:1 to receive either 250 mg of CBD daily, 500 mg of CBD daily, or placebo, for 12 weeks. […] The 250 mg and 500 mg doses were administered as a 4.2% (wt/wt) CBD gel.
Across all participants, patients on 250 mg of CBD daily dosage achieved a 2.64 mean reduction from baseline in average worst knee pain scores at week 12; patients on 500 mg of CBD daily achieved a 2.83 mean reduction from baseline in average worst knee pain scores at week 12; and patients on placebo achieved a 2.37 mean reduction from baseline in average worst knee pain scores at week 12. […] A mixed-model repeated measures (MMRM) model was used to test for differences between active treatment groups and placebo based on all weekly average worst knee pain scores from Baseline to Week 12.
Over an initial 7 day period, patients were instructed to end use of other osteoarthritic treatment such as NSAID or COX-2 inhibitor, but were permitted to use acetaminophen for rescue use. At this time, baseline mean worst knee pain was identified for each patient. During the study, rescue use of acetaminophen was permitted for both active and placebo study groups, and there was no difference among the groups in prevalence of rescue use.
Fisher's Exact Test was used to test for differences in composite responders between each active treatment and placebo at LOCF. In the composite responder analysis, a positive response on the composite response analysis indicated a ≥30 percent reduction in worst average daily pain scores and a >20 percent improvement in WOMAC (Western Ontario & McMaster Universities Osteoarthritis Index) physical function score.
The study data was also analyzed with regard to the active dose per weight of the patient (i.e., dosage/weight in mg CBD/kg weight of patient). For this analysis, the patient population was divided into three groups: 0-25 percentile, 25-75 percentile, and 75-100 percentile, by dose/weight. Table 9 is a summary of composite responder analysis at last observation Dose/Weight Quartile 0-25%. Table 10 is a summary of composite responder analysis at last observation dose/weight quartile 25-75%. Table 11 is a summary of composite responder analysis at last observation dose/weight quartile 75-100%.

[2] = Pharmacokinetic data: plasma concentrations in the 12-week osteoarthritis trial; format: in vivo, human
Experimental: as §1

[3] = 250 mg CBD, efficacy patients, last observation, 93 assessed
[4] = 250 mg CBD, efficacy patients, last observation, 106 assessed
[5] = 500 mg CBD, efficacy patients, last observation, 91 assessed
[6] = 500 mg CBD, efficacy patients, last observation, 105 assessed
[7] = Dose/Weight Quartile 0-25%, 250 mg, last observation, 46 assessed, p=0.010

## C=C(C)[C@@H]1CCC(C)=C[C@H]1c1c(O)cc(CCCCC)cc1O [CBD, 2-[3-methyl-6-(1-methylethenyl)-2-cyclohexen-1-yl]-5-pentyl-1,3-benzenediol]
[1]; [3]
  20 Percent Responders in Physical Function WOMAC Score: No, number of patients: 33
  20 Percent Responders in Physical Function WOMAC Score: No, percent of patients: (35.5) %
  20 Percent Responders in Physical Function WOMAC Score: Yes, number of patients: 60
  20 Percent Responders in Physical Function WOMAC Score: Yes, percent of patients: (64.5) %
  Composite Responder: No, number of patients: 44
  Composite Responder: No, percent of patients: (47.3) %
[1]; 250 mg CBD, efficacy patients, last observation, 93 assessed, p=0.016 vs placebo
  Composite Responder: Yes, number of patients: 49
[1]; [4]
  30 Percent Reduction in Diary Pain: No, number of patients: 53
  30 Percent Reduction in Diary Pain: No, percent of patients: (50.0) %
  30 Percent Reduction in Diary Pain: Yes, number of patients: 53
  30 Percent Reduction in Diary Pain: Yes, percent of patients: (50.0) %
[1]; 250 mg of CBD daily, week 8, p=0.037
  responder rate based on ≥30% reduction in worst pain severity: Statistically significant
[1]; [5]
  20 Percent Responders in Physical Function WOMAC Score: No, number of patients: 37
  20 Percent Responders in Physical Function WOMAC Score: No, percent of patients: (40.7) %
  20 Percent Responders in Physical Function WOMAC Score: Yes, number of patients: 54
  20 Percent Responders in Physical Function WOMAC Score: Yes, percent of patients: (59.3) %
  Composite Responder: No, number of patients: 50
  Composite Responder: No, percent of patients: (54.9) %
[1]; 500 mg CBD, efficacy patients, last observation, 91 assessed, p=0.169 vs placebo
  Composite Responder: Yes, number of patients: 41
[1]; [6]
  30 Percent Reduction in Diary Pain: No, number of patients: 54
  30 Percent Reduction in Diary Pain: No, percent of patients: (51.4) %
  30 Percent Reduction in Diary Pain: Yes, number of patients: 51
  30 Percent Reduction in Diary Pain: Yes, percent of patients: (48.6) %
[1]; Dose/Weight Quartile 0-25%, 250 mg, last observation, 46 assessed
  20 Percent Responders in Physical Function WOMAC Score: Yes, percent of patients: 69.6%
[1]; [7]
  Composite Responders: Yes, number of patients: 27
  Composite Responders: Yes, percent of patients: 58.7%
[1]; all participants, 250 mg CBD daily, week 12, placebo 2.37, not statistically significant
  mean reduction from baseline in average worst knee pain scores: 2.64
[1]; all participants, 500 mg CBD daily, week 12, placebo 2.37, not statistically significant
  mean reduction from baseline in average worst knee pain scores: 2.83
[1]; baseline pain score ≥7, both CBD dosage groups combined, week 4, placebo 1.6, p=0.029
  mean reduction from baseline in average worst knee pain scores: 2.17
[1]; baseline pain score ≥7, both CBD dosage groups combined, week 8, placebo 2.22, p=0.054
  mean reduction from baseline in average worst knee pain scores: 3.02
[1]; baseline pain score ≥7, both CBD dosage groups combined, week 12, placebo 2.52, p=0.086
  mean reduction from baseline in average worst knee pain scores: 3.29
[1]; dose/weight quartile 25-75%, 250 mg, last observation, 47 assessed, p=0.194
  Composite Responders: Yes, percent of patients: 46.8%
[1]; dose/weight quartile 25-75%, 500 mg, last observation, 45 assessed, p=0.133
  Composite Responders: Yes, percent of patients: 48.9%
[1]; dose/weight quartile 75-100%, 500 mg, last observation, 46 assessed, p=0.453
  Composite Responders: Yes, percent of patients: 41.3%
[1]; male patients, 250 mg, LOCF, placebo 27%, p=0.003
  Composite Responders: 60%
[1]; male patients, 250 mg, wk 4
  Worst Knee Pain Score, % reduction: 24%
[1]; male patients, 250 mg, wk 4, baseline 6.77, p=0.156
  Worst Knee Pain Score: 5.05
[1]; male patients, 250 mg, wk 8
  Worst Knee Pain Score, % reduction: 34%
[1]; male patients, 250 mg, wk 8, baseline 6.77, p=0.066
  Worst Knee Pain Score: 4.47
[1]; male patients, 250 mg, wk 12
  Worst Knee Pain Score, % reduction: 39%
[1]; male patients, 250 mg, wk 12, n=47, baseline 6.77, p=0.049
  Worst Knee Pain Score: 4.16
[1]; male patients, 500 mg, LOCF, placebo 27%, p=0.174
  Composite Responders: 41%
[1]; male patients, 500 mg, wk 4
  Worst Knee Pain Score, % reduction: 22%
[1]; male patients, 500 mg, wk 4, baseline 6.85, p=0.323
  Worst Knee Pain Score: 5.33
[1]; male patients, 500 mg, wk 8
  Worst Knee Pain Score, % reduction: 30%
[1]; male patients, 500 mg, wk 8, baseline 6.85, p=0.474
  Worst Knee Pain Score: 4.73
[1]; male patients, 500 mg, wk 12
  Worst Knee Pain Score, % reduction: 33%
[1]; male patients, 500 mg, wk 12, n=38, baseline 6.85, p=0.193
  Worst Knee Pain Score: 4.44
[1]; men, 250 mg of CBD daily, week 4, placebo 1.19, p=0.156
  mean reduction from baseline in average worst knee pain scores: 1.65
[1]; men, 250 mg of CBD daily, week 8, placebo 1.56, p=0.066
  mean reduction from baseline in average worst knee pain scores: 2.30
[1]; men, 250 mg of CBD daily, week 12, placebo 1.70, p=0.049
  mean reduction from baseline in average worst knee pain scores: 2.68
[1]; patients having a baseline knee pain score less than 7, FIG. 10
  pain reduction over placebo: not statistically significant
[1]; patients with ≥7 mean baseline pain score, CBD groups combined, placebo 33%, p=0.083
  Composite Responders: 51%
[1]; patients with ≥7 mean baseline pain score, CBD groups combined, wk4
  Worst Knee Pain Score, % reduction: 28%
[1]; patients with ≥7 mean baseline pain score, CBD groups combined, wk4, baseline 7.7, p=0.029
  Worst Knee Pain Score: 5.45
[1]; patients with ≥7 mean baseline pain score, CBD groups combined, wk8
  Worst Knee Pain Score, % reduction: 40%
[1]; patients with ≥7 mean baseline pain score, CBD groups combined, wk8, baseline 7.7, p=0.054
  Worst Knee Pain Score: 4.61
[1]; patients with ≥7 mean baseline pain score, CBD groups combined, wk12
  Worst Knee Pain Score, % reduction: 43%
[1]; patients with ≥7 mean baseline pain score, CBD groups combined, wk12, n=75, baseline 7.7, p=0.086
  Worst Knee Pain Score: 4.34
[1]; total patients, 250 mg, wk 4
  Worst Knee Pain Score, % reduction: 24%
[1]; total patients, 250 mg, wk 4, baseline 6.8, p=0.432
  Worst Knee Pain Score: 5.09
[1]; total patients, 250 mg, wk 8
  Worst Knee Pain Score, % reduction: 34%
[1]; total patients, 250 mg, wk 8, baseline 6.8, p=0.193
  Worst Knee Pain Score: 4.43
[1]; total patients, 250 mg, wk 12
  Worst Knee Pain Score, % reduction: 38%
[1]; total patients, 250 mg, wk 12, n=76, baseline 6.8, p=0.517
  Worst Knee Pain Score: 4.23
[1]; total patients, 500 mg, wk 4
  Worst Knee Pain Score, % reduction: 27%
[1]; total patients, 500 mg, wk 4, baseline 6.87, p=0.067
  Worst Knee Pain Score: 4.96
[1]; total patients, 500 mg, wk 8
  Worst Knee Pain Score, % reduction: 37%
[1]; total patients, 500 mg, wk 8, baseline 6.87, p=0.21
  Worst Knee Pain Score: 4.27
[1]; total patients, 500 mg, wk 12
  Worst Knee Pain Score, % reduction: 41%
[1]; total patients, 500 mg, wk 12, n=75, baseline 6.87, p=0.249
  Worst Knee Pain Score: 3.99
[2]; 500 mg and 250 mg daily CBD doses
  dose media plasma concentrations, dose relationship: dose proportional
[2]; 500 mg vs 250 mg daily
  plasma concentration of the 500 mg dose relative to the 250 mg dose: approximately two times
